From ChEMBL document CHEMBL5030516, “Fighting Shigella by Blocking Its Disease-Causing Toxin” (J Med Chem, 2021)

Assay: Inhibition of C-terminal 6XHis-tagged Shigella dysenteriae Stx1b (21 to 89 residues) expressed in Escherichia coli BL21 for 1 hr by ELISA assay
Compound `O=C(O)c1cc(OCc2cn([C@@H]3O[C@H](CO)[C@H](O[C@H]4O[C@H](CO)[C@H](O)[C@H](O)[C@H]4O)[C@H](O)[C@H]3O)nn2)cc(OCc2cn([C@@H]3O[C@H](CO)[C@H](O[C@H]4O[C@H](CO)[C@H](O)[C@H](O)[C@H]4O)[C@H](O)[C@H]3O)nn2)c1` has an IC50 of 1070 µM. `O=C(NCCCCCCCCCCCCNC(=O)c1cc(OCc2cn([C@@H]3O[C@H](CO)[C@H](O[C@H]4O[C@H](CO)[C@H](O)[C@H](O)[C@H]4O)[C@H](O)[C@H]3O)nn2)cc(OCc2cn([C@@H]3O[C@H](CO)[C@H](O[C@H]4O[C@H](CO)[C@H](O)[C@H](O)[C@H]4O)[C@H](O)[C@H]3O)nn2)c1)c1cc(OCc2cn([C@@H]3O[C@H](CO)[C@H](O[C@H]4O[C@H](CO)[C@H](O)[C@H](O)[C@H]4O)[C@H](O)[C@H]3O)nn2)cc(OCc2cn([C@@H]3O[C@H](CO)[C@H](O[C@H]4O[C@H](CO)[C@H](O)[C@H](O)[C@H]4O)[C@H](O)[C@H]3O)nn2)c1` showed an IC50 of 13.5 µM. For `[N-]=[N+]=N[C@@H]1O[C@H](CO)[C@H](O[C@H]2O[C@H](CO)[C@H](O)[C@H](O)[C@H]2O)[C@H](O)[C@H]1O`, the IC50 was 4970 µM. With `O=C(NCCOc1cc(OCCNC(=O)OCc2cn([C@@H]3O[C@H](CO)[C@H](O[C@H]4O[C@H](CO)[C@H](O)[C@H](O)[C@H]4O)[C@H](O)[C@H]3O)nn2)cc(C(=O)O)c1)OCc1cn([C@@H]2O[C@H](CO)[C@H](O[C@H]3O[C@H](CO)[C@H](O)[C@H](O)[C@H]3O)[C@H](O)[C@H]2O)nn1` the IC50 was 1240 µM. In the case of `O=C(O)c1cc(OCCNC(=O)c2cc(OCc3cn([C@@H]4O[C@H](CO)[C@H](O[C@H]5O[C@H](CO)[C@H](O)[C@H](O)[C@H]5O)[C@H](O)[C@H]4O)nn3)cc(OCc3cn([C@@H]4O[C@H](CO)[C@H](O[C@H]5O[C@H](CO)[C@H](O)[C@H](O)[C@H]5O)[C@H](O)[C@H]4O)nn3)c2)cc(OCCNC(=O)c2cc(OCc3cn([C@@H]4O[C@H](CO)[C@H](O[C@H]5O[C@H](CO)[C@H](O)[C@H](O)[C@H]5O)[C@H](O)[C@H]4O)nn3)cc(OCc3cn([C@@H]4O[C@H](CO)[C@H](O[C@H]5O[C@H](CO)[C@H](O)[C@H](O)[C@H]5O)[C@H](O)[C@H]4O)nn3)c2)c1`, the IC50 is reported as 19.9 µM.
